Measurements published in ChEMBL document CHEMBL3044650, “Interaction studies of E. coli uracil phosphoribosyltransferase with 5-fluorouracil for potent anti cancer activity” (Med Chem Res, 2012).

Molecular target: T1, Uracil phosphoribosyltransferase (Escherichia coli (strain K12), UniProt P0A8F0)
T1 sequence (P0A8F0 whole entry): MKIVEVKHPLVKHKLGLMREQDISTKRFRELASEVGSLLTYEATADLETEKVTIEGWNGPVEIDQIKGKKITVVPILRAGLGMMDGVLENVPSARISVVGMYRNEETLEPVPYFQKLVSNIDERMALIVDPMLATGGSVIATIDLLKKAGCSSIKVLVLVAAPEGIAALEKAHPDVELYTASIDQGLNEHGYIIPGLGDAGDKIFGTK
Experiment: Inhibition of Escherichia coli K-12 MTCC 1302 UPRT activity by spectrophotometry

With `O=c1[nH]cc(F)c(=O)[nH]1` [FLUOROURACIL] the Ki was 13 µM.
